From article doi:10.1101/2024.12.09.627564, “Cannabinoid inhibition of mechanosensitive K^+ channels” (bioRxiv, 2024)
pEC50, pIC50: −log10 of the molar value.

Tests used:
hsTRAAK = molecular target: T1, hsTRAAK (Homo sapiens, UniProt Q9NYG8); test: Whole-cell recordings of TRAAK in cultured HEK293T cells, extracellular CBD; format: cell-based; conditions: 1 and 10 μM CBD, 0 mV
T1 construct: expressed in transfected cells; host or cells: HEK293T
T1 sequence (Q9NYG8 1-393): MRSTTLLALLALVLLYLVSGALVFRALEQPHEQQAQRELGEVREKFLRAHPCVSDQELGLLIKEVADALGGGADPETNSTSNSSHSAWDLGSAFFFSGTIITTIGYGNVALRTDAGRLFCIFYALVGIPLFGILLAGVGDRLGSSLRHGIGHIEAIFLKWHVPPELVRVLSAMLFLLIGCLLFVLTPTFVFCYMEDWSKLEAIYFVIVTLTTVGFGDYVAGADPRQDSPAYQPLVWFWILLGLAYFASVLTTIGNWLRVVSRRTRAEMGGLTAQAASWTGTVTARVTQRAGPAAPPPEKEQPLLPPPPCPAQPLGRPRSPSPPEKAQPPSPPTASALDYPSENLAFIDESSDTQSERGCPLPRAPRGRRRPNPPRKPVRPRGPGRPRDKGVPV
Experimental: For patch clamp recording from cultured cells, drTREK-1 or hsTRAAK genes were cloned into a modified pCEH vector to generate C-terminally EGFP-tagged constructs. HEK293T were cultured in DMEM (Gibco, Thermo Fisher Scientific) with 10% FBS and 100 U ml−1 penicillin and 100 μg ml−1 streptomycin. Trypsinized cells were deposited on 12-mm glass coverslips in a six-well dish one to two days before transfection. For transfection, drTREK-1 or hsTRAAK plasmids were mixed with FuGENE 6 in OptiMEM at a 1:3 ratio with 1 μg DNA per well per construct and applied to cells in growth medium with antibiotics. Patching was conducted from 24 to 60 h post-transfection. Coverslips were placed in a perfusion chamber at room temperature in isotonic bath solution: 135 mM NaCl, 15 mM KCl, 1 mM CaCl2, 1 mM MgCl2, 10 mM HEPES, adjusted to a final pH of 7.5 with NaOH. Cells were chosen by a combination of the presence GFP fluorescence and cell morphology consistent with healthy interphase cells. […]
Patches were evaluated with voltage-step protocols to confirm TRAAK expression and minimal non-specific leak based on reversal potential. Currents were recorded using an Axopatch 200B amplifier (Molecular Devices) at a bandwidth of 1 kHz and digitized with an Digidata 1550B (Molecular Devices) at 100–500 kHz using pClamp10.7 software. […] Data were analyzed using Clampfit 10.7, Excel, and Graphpad Prism software. […]

GPR55 = system: GPR55; set-up: method as in PMID 17876302, PMID 29669714, PMID 36787750; conditions: negative modulation of GPR55; cited from earlier work
Kv7.2/7.3 = system: Kv7.2/7.3; set-up: method as in PMID 35179483, PMID 37857637; conditions: activation; cited from earlier work
BK = system: BK; set-up: method as in PMID 38708937; conditions: inhibition; cited from earlier work

For `C=C(C)[C@@H]1CCC(C)=C[C@H]1c1c(O)cc(CCCCC)cc1O` [CBD, Cannabidiol], the “inhibition of TRAAK by extracellular CBD” value (hsTRAAK) is listed as “strongly inhibited”, the pIC50 (GPR55) is listed as about 6.30 and the pEC50 (Kv7.2/7.3) is listed as 6.70. The pIC50 (BK) was 6.55.
